# Laboratory results from ChEMBL document CHEMBL5331104, “Discovery of BRD4-HDAC Dual Inhibitors with Improved Fungal Selectivity and Potent Synergistic Antifungal Activity against Fluconazole-Resistant Candida albicans” (J Med Chem, 2023).
# Active and inactive are the calls of the source. The calls are words filed in the database; no cut-off is given here.
# How the values were obtained:
# [1] = test system: Candida albicans; experiment: Downregulation of GCA1 expression in Candida albicans 0304103 at 32 ug/mL incubated for 24 hrs by RT q-PCR analysis; format: functional; conditions: dose 32.0 µg/ml
# [2] = test system: Nakaseomyces glabratus; experiment: Synergetic antifungal activity against Candida glabrata 4408 assessed as microbial growth inhibition incubated for 24 hrs in the presence of fluconazole by checkerboard microdilution method; format: functional
# [3] = test system: Cryptococcus neoformans; experiment: Antifungal activity against Cryptococcus neoformans 011405 assessed as microbial growth inhibition; format: functional
# [4] = test system: Candida albicans; format: functional, 0304103; conditions: time 24 hrs
# Description: Synergetic antifungal activity against Candida albicans 0304103 assessed as fractional inhibitory concentration index incubated for 24 hrs in the presence of fluconazole by checkerboard microdilution method
# [5] = test system: [Candida] auris; experiment: Antifungal activity against Candida auris 0030 assessed as microbial growth inhibition; format: functional; conditions: Candidozyma auris
# [6] = test system: Candida albicans; experiment: Antibiofilm activity against FLC-resistant Candida albicans 0304103 assessed as inhibition of biofilm formation at 64 ug/mL incubated for 24 hrs by XTT reduction assay; format: functional, organism-based; conditions: dose 64.0 µg/ml
# [7] = test system: Candida albicans; experiment: microbe, parasite or virus in culture; format: functional; conditions: 0304103, time 24 hrs
# Description: Synergetic antifungal activity against Candida albicans 0304103 assessed as microbial growth inhibition incubated for 24 hrs in the presence of fluconazole by checkerboard microdilution method
# [8] = test system: Candida albicans; experiment: Downregulation of MDR1 expression in Candida albicans 0304103 at 32 ug/mL incubated for 24 hrs in the presence of fluconazole by RT q-PCR analysis; format: functional; conditions: dose 32.0 µg/ml
# [9] = test system: Candida albicans; experiment: Antifungal activity against Candida albicans 0304103 infected in ICR mouse assessed as reduction in kidney fungal burden at 10 mg/kg, ip administered for 5 consecutive days; format: functional, organism-based; conditions: time 5.0 day
# [10] = test system: Candida albicans; experiment: Downregulation of ERG11 expression in Candida albicans 0304103 at 32 ug/mL incubated for 24 hrs by RT q-PCR analysis; format: functional; conditions: dose 32.0 µg/ml
# [11] = test system: Candida albicans; experiment: Synergistic antibiofilm activity against FLC-resistant Candida albicans 0304103 assessed as inhibition of biofilm formation at 64 ug/mL incubated for 24 hrs in presence of by XTT reduction assay relative to control; format: functional; set-up: scale not given: the % may be the effect or the level left; conditions: dose 64 µg/ml
# [12] = molecular target: Histone deacetylase; experiment: Inhibition of total HDAC in human HUVEC cells using Boc-Lys(Ac)-AMC as substrate preincubated for 12 hrs followed by substrate addition measured after 6 hrs by microtiter plate reader analysis; format: cell-based
# [13] = test system: [Candida] auris; experiment: Synergetic antifungal activity against Candida auris 0030 assessed as fractional inhibitory concentration index incubated for 24 hrs in the presence of fluconazole by checkerboard microdilution method; format: functional, Candidozyma auris
# [14] = test system: HEL; experiment: Antiproliferative activity against human HEL cells incubated for 48 hrs by CCK8 assay; format: functional, cell-based
# [15] = test system: Cryptococcus neoformans; experiment: Synergetic antifungal activity against Cryptococcus neoformans 011405 assessed as microbial growth inhibition incubated for 24 hrs in the presence of fluconazole by checkerboard microdilution method; format: functional
# [16] = test system: Candida albicans; experiment: Downregulation of CDR1 expression in Candida albicans 0304103 at 32 ug/mL incubated for 24 hrs by RT q-PCR analysis; format: functional; conditions: dose 32.0 µg/ml
# [17] = test system: Candida albicans; experiment: Downregulation of ADH5 expression in Candida albicans 0304103 at 32 ug/mL incubated for 24 hrs by RT q-PCR analysis; format: functional; conditions: dose 32.0 µg/ml
# [18] = test system: Candida albicans; experiment: Synergistic antifungal activity against Candida albicans 0304103 assessed as reduction in yeast to hypha transition at 32 ug/mL incubated for 2 hrs in the presence of fluconazole by inverse fluorescence microscopy; format: functional, organism-based; conditions: dose 32.0 µg/ml
# [19] = test system: Cryptococcus neoformans; experiment: Synergetic antifungal activity against Cryptococcus neoformans 011405 assessed as fractional inhibitory concentration index incubated for 24 hrs in the presence of fluconazole by checkerboard microdilution method; format: functional
# [20] = test system: HL-60; experiment: Antiproliferative activity against human HL-60 cells incubated for 48 hrs by CCK8 assay; format: functional, cell-based; conditions: HL-60, 48 h
# [21] = test system: Candida albicans; experiment: Synergetic antifungal activity against Candida albicans 9172 assessed as fractional inhibitory concentration index incubated for 24 hrs in the presence of fluconazole by checkerboard microdilution method; format: functional
# [22] = test system: Candida albicans; experiment: Downregulation of GCA1 expression in Candida albicans 0304103 at 32 ug/mL incubated for 24 hrs in the presence of fluconazole by RT q-PCR analysis; format: functional; conditions: dose 32.0 µg/ml
# [23] = test system: Candida albicans; experiment: microbe, parasite or virus in culture; format: functional; conditions: 0304103
# Description: Antifungal activity against Candida albicans 0304103 assessed as microbial growth inhibition
# [24] = test system: [Candida] auris; experiment: Synergetic antifungal activity against Candida auris 0029 assessed as fractional inhibitory concentration index incubated for 24 hrs in the presence of fluconazole by checkerboard microdilution method; format: functional, Candidozyma auris
# [25] = test system: K562; experiment: Antiproliferative activity against human K562 cells incubated for 48 hrs by CCK8 assay; format: functional, cell-based; conditions: K562, 48 h
# [26] = test system: Candida albicans; experiment: Antifungal activity against Candida albicans 0304103 infected in ICR mouse assessed as decrease in kidney fungal burden at 10 mg/kg, ip administered for 5 consecutive days in the presence of fluconazole; format: functional, organism-based; conditions: time 5.0 day
# [27] = test system: Candida albicans; experiment: Synergetic antifungal activity against Candida albicans 9884 assessed as fractional inhibitory concentration index incubated for 24 hrs in the presence of fluconazole by checkerboard microdilution method; format: functional
# [28] = test system: Candida albicans; experiment: Antifungal activity against Candida albicans 9884 assessed as microbial growth inhibition; format: functional
# [29] = test system: Candida albicans; experiment: Downregulation of MDR1 expression in Candida albicans 0304103 at 32 ug/mL incubated for 24 hrs by RT q-PCR analysis; format: functional; conditions: dose 32.0 µg/ml
# [30] = test system: Candida albicans; experiment: Downregulation of CDR2 expression in Candida albicans 0304103 at 32 ug/mL incubated for 24 hrs in the presence of fluconazole by RT q-PCR analysis; format: functional; conditions: dose 32.0 µg/ml
# [31] = test system: Candida albicans; experiment: Synergetic antifungal activity against Candida albicans 9884 assessed as microbial growth inhibition incubated for 24 hrs in the presence of fluconazole by checkerboard microdilution method; format: functional
# [32] = in vitro; conditions: human, HUVEC cells
# Description: Cytotoxicity against HUVECs assessed as inhibition of cell growth incubated for 48 hrs by CCK8 assay
# [33] = molecular target: Histone deacetylase 1 (Homo sapiens, UniProt Q13547); experiment: Inhibition of full-length recombinant human HDAC1 (1 to 482 residues) expressed in baculovirus infected insect cells using […] as substrate incubated for 30 mins by fluorescence based analysis; set-up: species or system Insect cell
# Histone deacetylase 1, sequence (Q13547 whole entry, the tested form may be a part): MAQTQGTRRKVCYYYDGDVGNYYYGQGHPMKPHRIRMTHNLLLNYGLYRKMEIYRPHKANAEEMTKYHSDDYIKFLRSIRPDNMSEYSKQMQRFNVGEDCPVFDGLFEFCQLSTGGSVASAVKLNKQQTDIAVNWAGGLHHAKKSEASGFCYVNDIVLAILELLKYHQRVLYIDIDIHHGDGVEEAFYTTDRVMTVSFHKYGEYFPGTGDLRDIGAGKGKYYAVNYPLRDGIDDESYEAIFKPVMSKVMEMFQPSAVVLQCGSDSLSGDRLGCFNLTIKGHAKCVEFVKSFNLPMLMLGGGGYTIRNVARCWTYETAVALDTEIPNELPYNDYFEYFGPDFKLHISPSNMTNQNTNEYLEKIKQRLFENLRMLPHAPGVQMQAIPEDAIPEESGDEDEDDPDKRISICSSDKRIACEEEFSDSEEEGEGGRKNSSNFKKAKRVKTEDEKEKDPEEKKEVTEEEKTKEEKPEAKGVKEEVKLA
# [34] = test system: Candida albicans; experiment: Downregulation of CDR2 expression in Candida albicans 0304103 at 32 ug/mL incubated for 24 hrs by RT q-PCR analysis; format: functional; conditions: dose 32.0 µg/ml
# [35] = test system: Nakaseomyces glabratus; experiment: Synergetic antifungal activity against Candida glabrata 4408 assessed as fractional inhibitory concentration index incubated for 24 hrs in the presence of fluconazole by checkerboard microdilution method; format: functional
# [36] = test system: Candida albicans; experiment: Antifungal activity against Candida albicans 9172 assessed as microbial growth inhibition; format: functional
# [37] = test system: Candida albicans; experiment: Antifungal activity against Candida albicans 0304103 assessed as reduction in yeast to hypha transition at 32 ug/mL incubated for 2 hrs by inverse fluorescence microscopy; format: functional, organism-based; conditions: dose 32.0 µg/ml
# [38] = test system: Candida albicans; experiment: Antifungal activity against Candida albicans 10061 assessed as microbial growth inhibition; format: functional
# [39] = test system: Candida albicans; experiment: Synergistic antibiofilm activity against FLC-resistant Candida albicans 0304103 assessed as inhibition of fungal growth at 32 ug/mL and measured for 48 hrs in the presence of fluconazole by time-growth curve assay; format: functional; set-up: scale not given: the % may be the effect or the level left; conditions: dose 32 µg/ml
# [40] = test system: Candida albicans; experiment: Downregulation of ADH5 expression in Candida albicans 0304103 at 32 ug/mL incubated for 24 hrs in the presence of fluconazole by RT q-PCR analysis; format: functional; conditions: dose 32.0 µg/ml
# [41] = test system: [Candida] auris; experiment: Antifungal activity against Candida auris 0029 assessed as microbial growth inhibition; format: functional; conditions: Candidozyma auris
# [42] = test system: Candida albicans; experiment: Synergetic antifungal activity against Candida albicans 10061 assessed as microbial growth inhibition incubated for 24 hrs in the presence of fluconazole by checkerboard microdilution method; format: functional
# [43] = test system: Candida albicans; experiment: Synergetic antifungal activity against Candida albicans 10061 assessed as fractional inhibitory concentration index incubated for 24 hrs in the presence of fluconazole by checkerboard microdilution method; format: functional
# [44] = test system: Candida albicans; experiment: Downregulation of CDR1 expression in Candida albicans 0304103 at 32 ug/mL incubated for 24 hrs in the presence of fluconazole by RT q-PCR analysis; format: functional; conditions: dose 32.0 µg/ml
# [45] = test system: Candida albicans; experiment: Antifungal activity against Candida albicans SC5314 assessed as fungal growth inhibition incubated for 24 hrs by broth dilution method; format: functional
# [46] = test system: Cryptococcus neoformans; experiment: Antifungal activity against Cryptococcus neoformans H99 assessed as fungal growth inhibition incubated for 24 hrs by broth dilution method; format: functional
# [47] = test system: Candida albicans; experiment: Synergetic antifungal activity against Candida albicans 9172 assessed as microbial growth inhibition incubated for 24 hrs in the presence of fluconazole by checkerboard microdilution method; format: functional
# [48] = test system: Nakaseomyces glabratus; experiment: Antifungal activity against Candida glabrata 4408 assessed as microbial growth inhibition; format: functional
# [49] = test system: [Candida] auris; experiment: Synergetic antifungal activity against Candida auris 0030 assessed as microbial growth inhibition incubated for 24 hrs in the presence of fluconazole by checkerboard microdilution method; format: functional; conditions: Candidozyma auris
# [50] = test system: Candida albicans; experiment: Downregulation of ERG11 expression in Candida albicans 0304103 at 32 ug/mL incubated for 24 hrs in the presence of fluconazole by RT q-PCR analysis; format: functional; conditions: dose 32.0 µg/ml
# [51] = test system: Candida albicans; experiment: Antibiofilm activity against FLC-resistant Candida albicans 0304103 assessed as reduction in fungal growth at 32 ug/mL and measured for 48 hrs by time-growth curve assay; format: functional, organism-based; conditions: dose 32.0 µg/ml
# [52] = test system: [Candida] auris; experiment: Synergetic antifungal activity against Candida auris 0029 assessed as microbial growth inhibition incubated for 24 hrs in the presence of fluconazole by checkerboard microdilution method; format: functional; conditions: Candidozyma auris
compound,measurement,setting,value
Cc1nnc2n1-c1sc3c(c1C(c1ccc(Cl)cc1)=N[C@H]2CC(=O)NCc1ccc(C(=O)NO)cc1)CCCC3,Activity,[1],Active
same,MIC80,[2],2 µg/mL
same,MIC80,[3],32 µg/mL
same,fractional inhibitory concentration index (FICI),[4],0.063
same,MIC80,[5],> 64 µg/mL
same,Activity,[6],inactive
same,MIC80,[7],2 µg/mL
same,Activity,[8],Active
same,Activity,[9],inactive
same,Activity,[10],Active
same,Activity,[11],80%
same,IC50,[12],4.3 µM
same,fractional inhibitory concentration index (FICI),[13],1.5
same,IC50,[14],7.2 µM
same,MIC80,[15],2 µg/mL
same,Activity,[16],Active
same,Activity,[17],Active
same,Activity,[18],Active
same,fractional inhibitory concentration index (FICI),[19],0.31
same,IC50,[20],3.1 µM
same,fractional inhibitory concentration index (FICI),[21],0.07
same,Activity,[22],Active
same,MIC80,[23],> 64 µg/mL
same,fractional inhibitory concentration index (FICI),[24],1.5
same,IC50,[25],> 10 µM
same,Activity,[26],Active
same,fractional inhibitory concentration index (FICI),[27],0.19
same,MIC80,[28],> 64 µg/mL
same,Activity,[29],Active
same,Activity,[30],Active
same,MIC80,[31],4 µg/mL
same,IC50 at 48 h,[32],18 µM
same,IC50,[33],2.4 µM
same,Activity,[34],Active
same,fractional inhibitory concentration index (FICI),[35],0.28
same,MIC80,[36],> 64 µg/mL
same,Activity,[37],inactive
same,MIC80,[38],> 64 µg/mL
same,Activity,[39],100%
same,Activity,[40],Active
same,MIC80,[41],> 64 µg/mL
same,MIC80,[42],2 µg/mL
same,fractional inhibitory concentration index (FICI),[43],0.047
same,Activity,[44],Active
same,MIC80,[45],> 64 µg/mL
same,MIC80,[46],8 µg/mL
same,MIC80,[47],4 µg/mL
same,MIC80,[48],8 µg/mL
same,MIC80,[49],32 µg/mL
same,Activity,[50],Active
same,Activity,[51],inactive
same,MIC80,[52],32 µg/mL
